Assay results from paper PMC9993459, “A novel selective spleen tyrosine kinase inhibitor SKI-O-703 (cevidoplenib) ameliorates lupus nephritis and serum-induced arthritis in murine models” (Clinical and Experimental Immunology, 2022).

How the values were obtained:
Format in all cases: cell-based
human peripheral T cells = assay: IL-2 production by activated T cells (ELISA); conditions: fold lower than tofacitinib
Method: Supplementary F igure 1. SKI -O-592 and - 703 s p a re TCR- mediated signaling in T cells
(A) The stru cture of SKI-O-703. (B-D) Human per ipheral T cells sorted fro m human peripheral blood mononuclear cells (B and D) and mouse primary T cells sorted from spleen (C ) wer e stimulated with 5 µ g/ml anti- CD3 and 2 µ g/ml anti- CD28 m Abs in the presence or absence of inhibitors as indicated. Af ter one hour (B) and 24 h ours (C and D) of culture, cells we re assaye d […]
by immunoblotting (B), FA C S ( C), and ELISA (D). […]
of Zap70 and its downstream target PLCγ1. It’s effect on the suppression of IL-2 production […]
Supplementary F igure 2. Gating strategy for FACS of spleen cells
Erythrocyte-d epleted mo use spleen cells w ere assayed by FACS. Whole live cells were gated as shown: plasma cells (C D19lo/- CD138hi), GC B cells (CD19+ CD138- GL-7h i FA S hi), follicular B cells (CD19+ CD43- CD23hi CD21-), marginal zone B cells (CD19+ C D43- CD21hi CD23lo ), and Tfh cells (CD4+ CXCR5+ PD-1hi).
Supplementary Figure 3. Differential susceptibility of short-lived and long-lived plasma […]
When spleen cells from NZB/W mice were assay ed by FACS as in Fig. 5, they were stained intracellularly with anti- Ki-67 mAb to distinguish Ki-67+ dividing cells from Ki-67- non-dividing cells among t h e CD138hi population. […]

mouse primary B cells [1] = assay: Annexin V/7-AAD apoptosis assay in B cells; conditions: 24 h, effect more potent with anti-IgM than LPS
Method: (§1) Splenic CD19^+ B cells from C57BL/6 mice were sorted by MACS (Milteny Biotec), stained with 3 μM cell proliferation dye eFluor 670 (CP670; eBioscience), and cultured for 72 h in the presence of either 10 μg/ml LPS (Sigma Aldrich) or 5 μg/ml anti-mouse IgM (Jackson Immuno Research Laboratories), 10 μg/ml anti-CD40 mAb (Biolegend) and 10 ng/ml IL-4 (Peprotech), and assayed by FACS. To detect apoptotic cells, unstimulated cells were cultured for 24 h, stained with Annexin V and 7-aminoactinomycin D (7-AAD), and assayed by FACS.
(§2) Figure 2: in vitro effects of SKI-O -703 on the proliferation, survival, and differentiation of B cells. Mouse primary B cells were labeled with CP670, and stimulated with either anti-IgM mAb, CD40L and IL-4 (A) or LPS (B) for 72 h in the presence or absence of SKI-O-703 and tofacitinib at the indicated concentrations; they were then assayed by FACS. (C and D) Mouse primary B cells were cultured as in A and B for 24 h, stained with Annexin V and 7-AAD, and assayed by FACS. Representative FACS profiles and graphs displaying mean Annexin V-positivity are shown. (E) Human primary B cells were stimulated with CpG ODN plus IL-2 (to detect IgM and IgG) or CpG ODN 2006 plus IFN-α (to detect IL-6) in the presence or absence of inhibitors. The culture supernatants were assayed by ELISA. Graphs are expressed as % positivity relative to the controls (without inhibitor). […]

mouse primary B cells [2] = assay: CP670-dilution proliferation assay, LPS-stimulated B cells; conditions: 72 h
Method: as §1, §2

Compound | Potency on IL-2 production relative to tofacitinib (IC50) (human peripheral T cells) [fold] | Proportions of early and late apoptotic B cells (mouse primary B cells [1]) | Concentration required to significantly inhibit LPS-induced proliferation (mouse primary B cells [2])
Cc1nn(-c2ccnc(Nc3ccc4c(c3)c(C(=O)C3CC3)cn4C)n2)cc1CN1C[C@H](O)CO1 [SKI-O-592] | 25 |  | 
CS(=O)(=O)O.CS(=O)(=O)O.Cc1nn(-c2ccnc(Nc3ccc4c(c3)c(C(=O)C3CC3)cn4C)n2)cc1CN1C[C@H](O)CO1 [SKI-O-703, (S)-cyclopropyl(5-((4-(4-((4-hydroxyisoxazolidin-2-yl)methyl)-3-methyl-1H-pyrazol-1-yl)pyrimidin-2-yl)amino)-1-methyl-1H-indol-3-yl)methanone dimesylate] |  | increased the proportions of early and late apoptotic cells | at least 5 μM
